Assay results: US4195101A, “2',6'-Dihydroxy-9-(2,5-dihydroxyphenyl)octylphenone and its use as an anti-oxidant” (The Lion Dentifrice Co. Ltd., priority 1977, dated 1980)

Legend:
[1] = Solubility rating of 10 mg of the crystal in various solvents (Table I); assay type: physicochemical; conditions: for Rating of Solubility: 10 mg of crystal
Procedure: This compound is obtained as needle-like or plate-like crystals white to pale-yellow in appearance, tasteless, odorless and non-irritative, and has a melting point of 123.5° to 124° C. The compound is soluble in various solvents as shown in Table I. In Table I, the solubility of the compound was rated by A, B, C and D and each rating was determined for 10 mg of the crystal as follows.
A: Soluble in less than 0.1 ml of solvent.
B: Soluble in 0.1-1.0 ml of solvent.
C: Soluble in 1.0-10.0 ml of solvent.
[…]: Soluble in more than 10.0 ml of solvent.

[2] = Test I: peroxide value of refined lard by the active oxygen method (AOM); conditions: for Peroxide value: 97.5° C.
Procedure: (§1) The above-obtained compound was tested for its anti-oxidative effects in terms of peroxide value by the active oxygen method (AOM) and also in terms of oxygen absorption. […] Each of the tests I and II are described below together with the results thereof.
Varied amounts of the compound were admixed with and uniformly dissolved in portions of refined lard each weighing 20 g to prepare test samples. Each test sample was kept in an oil bath of thermostat at 97.5°±0.5° C., while air was forcedly blown into the lard at a rate of […].
The thus treated samples of the lard were analyzed for the peroxide value (POV for brevity) periodically or at certain intervals, in accordance with the modified Lea's method as described in "Yukagaku" (Journal of Japan Oil Chemist Society), vol. 19(15), p. 340, 1970.
In comparison, similar experiments were undertaken for the samples of the same lard with addition of BHA instead of the compound of the present invention or without addition of any anti-oxidant.

[3] = Test II: oxygen absorption in corn salad oil, Warburg's manometer; conditions: 0.02% by weight in corn salad oil, 60° C.
Procedure: as §1
The compound of the present invention was determined for the rate of oxygen absorption in a corn salad oil to which 0.02% by weight of the compound had been added. For the purpose, 2 grams of the corn salad oil sample was taken in the receptacle of Warburg's manometer with thermostat at 60°±0.1° C., which was shaken with 110 vibrations per minute in a vibration amplitude of 60 mm. The rate of oxygen absorption was determined by reading the manometer according to the procedure set forth in "Jikken Kagaku Koza" (Lectures in Experimental Chemistry), vol. 24, p. 85, 1958, Maruzen Publishing, Japan. In this testing, the receptacle was totally wrapped with an aluminum foil to prevent the photooxidation of the oil, and mercury was used as the manometer fluid in place of Brodie's solution in order to minimize any possible influence caused by fluctuations in the atmospheric pressure.
Further, in comparison, a similar test was conducted using the same corn salad oil with addition of 0.02% by weight of BHA or without addition of any anti-oxidant.

[4] = Anti-oxidative activity, general statements
[5] = Irritation (statement on properties of the compound)
[6] = LD50, oral administration, mouse; conditions: in vivo, po
mouse = assay: LD50, oral administration, mouse

Structure (SMILES): O=C(CCCCCCCCc1cc(O)ccc1O)c1c(O)cccc1O [Inventive compound, 2',6'-dihydroxy-9-(2,5-dihydroxyphenyl)octylphenone]
- Rating of Solubility ([1]; 1,2-Dichloroethane, at 25° C.): C (Soluble in 1.0-10.0 ml of solvent)
- Rating of Solubility ([1]; 1,2-Dichloroethane, at the boiling point of solvent): A (Soluble in less than 0.1 ml of solvent)
- Rating of Solubility ([1]; Acetone, at 25° C.): A (Soluble in less than 0.1 ml of solvent)
- Rating of Solubility ([1]; Acetone, at the boiling point of solvent): A (Soluble in less than 0.1 ml of solvent)
- Rating of Solubility ([1]; Acetonitrile, at 25° C.): A (Soluble in less than 0.1 ml of solvent)
- Rating of Solubility ([1]; Acetonitrile, at the boiling point of solvent): A (Soluble in less than 0.1 ml of solvent)
- Rating of Solubility ([1]; Benzene, at the boiling point of solvent): B (Soluble in 0.1-1.0 ml of solvent)
- Rating of Solubility ([1]; Carbon tetrachloride, at the boiling point of solvent): C (Soluble in 1.0-10.0 ml of solvent)
- Rating of Solubility ([1]; Chloroform, at 25° C.): C (Soluble in 1.0-10.0 ml of solvent)
- Rating of Solubility ([1]; Chloroform, at the boiling point of solvent): C (Soluble in 1.0-10.0 ml of solvent)
- Rating of Solubility ([1]; Dichloromethane, at the boiling point of solvent): C (Soluble in 1.0-10.0 ml of solvent)
- Rating of Solubility ([1]; Diethylether, at 25° C.): A (Soluble in less than 0.1 ml of solvent)
- Rating of Solubility ([1]; Diethylether, at the boiling point of solvent): A (Soluble in less than 0.1 ml of solvent)
- Rating of Solubility ([1]; Ethyl acetate, at 25° C.): A (Soluble in less than 0.1 ml of solvent)
- Rating of Solubility ([1]; Ethyl acetate, at the boiling point of solvent): A (Soluble in less than 0.1 ml of solvent)
- Rating of Solubility ([1]; Ethyl alcohol, at 25° C.): A (Soluble in less than 0.1 ml of solvent)
- Rating of Solubility ([1]; Ethyl alcohol, at the boiling point of solvent): A (Soluble in less than 0.1 ml of solvent)
- Rating of Solubility ([1]; Methyl alcohol, at 25° C.): A (Soluble in less than 0.1 ml of solvent)
- Rating of Solubility ([1]; Methyl alcohol, at the boiling point of solvent): A (Soluble in less than 0.1 ml of solvent)
- Rating of Solubility ([1]; Pyridine, at 25° C.): A (Soluble in less than 0.1 ml of solvent)
- Rating of Solubility ([1]; Pyridine, at the boiling point of solvent): A (Soluble in less than 0.1 ml of solvent)
- Rating of Solubility ([1]; Toluene, at the boiling point of solvent): B (Soluble in 0.1-1.0 ml of solvent)
- solubility in ethyl acetate and ethyl alcohol ([1]; ethyl acetate and ethyl alcohol, in words): readily soluble
- Rating of Solubility ([1]; iso-Propyl alcohol, at 25° C.): A (Soluble in less than 0.1 ml of solvent)
- Rating of Solubility ([1]; iso-Propyl alcohol, at the boiling point of solvent): A (Soluble in less than 0.1 ml of solvent)
- solubility in ligroin and chloroform ([1]; ligroin and chloroform, in words): insoluble or hardly soluble
- Rating of Solubility ([1]; n-Butyl alcohol, at 25° C.): A (Soluble in less than 0.1 ml of solvent)
- Rating of Solubility ([1]; n-Butyl alcohol, at the boiling point of solvent): A (Soluble in less than 0.1 ml of solvent)
- Rating of Solubility ([1]; n-Propyl alcohol, at 25° C.): A (Soluble in less than 0.1 ml of solvent)
- Rating of Solubility ([1]; n-Propyl alcohol, at the boiling point of solvent): A (Soluble in less than 0.1 ml of solvent)
- solubility in 1,2-dichloroethane, toluene or benzene ([1]; room temperature, in words): insoluble or hardly soluble
- Peroxide value ([2]; 0.001 (% by weight) in lard, 8 hours): 2.4 meq./kg
- Peroxide value ([2]; 0.001 (% by weight) in lard, 16 hours): 5.3 meq./kg
- Peroxide value ([2]; 0.001 (% by weight) in lard, 24 hours): 8.2 meq./kg
- Peroxide value ([2]; 0.001 (% by weight) in lard, 32 hours): 14.9 meq./kg
- Peroxide value ([2]; 0.001 (% by weight) in lard, 40 hours): 419.9 meq./kg
- Peroxide value ([2]; 0.005% by weight in lard, 8 hours): 1.8 meq./kg
- Peroxide value ([2]; 0.005% by weight in lard, 16 hours): 5.0 meq./kg
- Peroxide value ([2]; 0.005% by weight in lard, 24 hours): 5.9 meq./kg
- Peroxide value ([2]; 0.005% by weight in lard, 32 hours): 6.3 meq./kg
- Peroxide value ([2]; 0.005% by weight in lard, 48 hours): 12.0 meq./kg
- Peroxide value ([2]; 0.005% by weight in lard, 56 hours): 18.2 meq./kg
- Peroxide value ([2]; 0.005% by weight in lard, 64 hours): 560.9 meq./kg
- prevention of oxidative denaturation of lard, compared with 0.02% by weight of BHA ([2]; 0.005% by weight of the compound in lard): to the same extent as done by adding 0.02% by weight of BHA
- Peroxide value ([2]; 0.01% by weight in lard, 8 hours): 1.5 meq./kg
- Peroxide value ([2]; 0.01% by weight in lard, 16 hours): 3.2 meq./kg
- Peroxide value ([2]; 0.01% by weight in lard, 24 hours): 4.8 meq./kg
- Peroxide value ([2]; 0.01% by weight in lard, 32 hours): 5.4 meq./kg
- Peroxide value ([2]; 0.01% by weight in lard, 40 hours): 7.7 meq./kg
- Peroxide value ([2]; 0.01% by weight in lard, 48 hours): 9.3 meq./kg
- Peroxide value ([2]; 0.01% by weight in lard, 56 hours): 11.3 meq./kg
- Peroxide value ([2]; 0.01% by weight in lard, 64 hours): 15.4 meq./kg
- Peroxide value ([2]; 0.01% by weight in lard, 72 hours): 22.1 meq./kg
- Peroxide value ([2]; 0.01% by weight in lard, 80 hours): 170.9 meq./kg
- anti-oxidative effect compared with the same amount of BHA ([2]; 0.02% by weight): approximately twice as high as the same amount of BHA
- Peroxide value ([2]; 0.02% by weight in lard, 8 hours): 1.8 meq./kg
- Peroxide value ([2]; 0.02% by weight in lard, 16 hours): 2.9 meq./kg
- Peroxide value ([2]; 0.02% by weight in lard, 24 hours): 3.8 meq./kg
- Peroxide value ([2]; 0.02% by weight in lard, 32 hours): 4.5 meq./kg
- Peroxide value ([2]; 0.02% by weight in lard, 40 hours): 6.0 meq./kg
- Peroxide value ([2]; 0.02% by weight in lard, 48 hours): 7.2 meq./kg
- Peroxide value ([2]; 0.02% by weight in lard, 56 hours): 8.2 meq./kg
- Peroxide value ([2]; 0.02% by weight in lard, 64 hours): 10.6 meq./kg
- Peroxide value ([2]; 0.02% by weight in lard, 72 hours): 13.2 meq./kg
- Peroxide value ([2]; 0.02% by weight in lard, 80 hours): 14.5 meq./kg
- Peroxide value ([2]; 0.02% by weight in lard, 96 hours): 21.5 meq./kg
- Peroxide value ([2]; 0.02% by weight in lard, 112 hours): 59.3 meq./kg
- Peroxide value ([2]; 0.02% by weight in lard, 120 hours): 390.7 meq./kg
- Peroxide value ([2]; 0.1% by weight in lard, 8 hours): 2.1 meq./kg
- Peroxide value ([2]; 0.1% by weight in lard, 16 hours): 3.0 meq./kg
- Peroxide value ([2]; 0.1% by weight in lard, 24 hours): 4.1 meq./kg
- Peroxide value ([2]; 0.1% by weight in lard, 32 hours): 5.2 meq./kg
- Peroxide value ([2]; 0.1% by weight in lard, 40 hours): 7.9 meq./kg
- Peroxide value ([2]; 0.1% by weight in lard, 48 hours): 8.7 meq./kg
- Peroxide value ([2]; 0.1% by weight in lard, 56 hours): 9.9 meq./kg
- Peroxide value ([2]; 0.1% by weight in lard, 64 hours): 11.8 meq./kg
- Peroxide value ([2]; 0.1% by weight in lard, 72 hours): 13.5 meq./kg
- Peroxide value ([2]; 0.1% by weight in lard, 80 hours): 16.0 meq./kg
- Peroxide value ([2]; 0.1% by weight in lard, 96 hours): 18.5 meq./kg
- Peroxide value ([2]; 0.1% by weight in lard, 112 hours): 24.0 meq./kg
- Peroxide value ([2]; 0.1% by weight in lard, 120 hours): 24.1 meq./kg
- Peroxide value ([2]; 0.1% by weight in lard, 144 hours): 29.9 meq./kg
- Peroxide value ([2]; 0.1% by weight in lard, 168 hours): 32.1 meq./kg
- Peroxide value ([2]; 0.1% by weight in lard, 192 hours): 38.1 meq./kg
- Peroxide value ([2]; 0.1% by weight in lard, 200 hours): 45.0 meq./kg
- Peroxide value ([2]; 0.1% by weight in lard, 264 hours): 678.2 meq./kg
- Oxygen absorption ([3]; 85 hours): 84.4 μ1/g
- Oxygen absorption ([3]; 140 hours): 138.7 μ1/g
- Oxygen absorption ([3]; 166 hours): 159.8 μ1/g
- Oxygen absorption ([3]; 199 hours): 174.8 μ1/g
- Oxygen absorption ([3]; 263 hours): 238.0 μ1/g
- Oxygen absorption ([3]; 288 hours): 280.4 μ1/g
- Oxygen absorption ([3]; 320 hours): 334.6 μ1/g
- Oxygen absorption ([3]; 343 hours): 375.3 μ1/g
- anti-oxidative activities (summary of peroxide value and oxygen absorption tests) ([4]; AOM peroxide value and oxygen absorption): excellent anti-oxidative activities
- anti-oxidative activities compared with the conventional anti-oxidant BHA ([4]; in foodstuffs, such as lard or the like): much higher anti-oxidative activities than the conventional anti-oxidant BHA
- irritation [5]: non-irritative
- LD50 [6]: > 2000 mg/kg
- LD50 value compared with BHT (mouse): about the same as in BHT
